Where a SMILES comes first, the peptide text is derived from it. [ ]: non-standard residue; d: D form. dTrp(2-Me) = Cc1[nH]c2ccccc2c1C[C@@H](N)C(=O)O
Key:
CD36 [1] = conditions: binding site competition; cited from earlier work
CD36 [2] = conditions: cited from earlier work
[3] = test system: HIV-1-infected primary macrophages; assay: p24 Gag release by HIV-1-infected macrophages after siRNA transfection (ELISA); conditions: Tsg101 knock down (positive control) compared with CD36 silencing
[4] = target: CD36 (human), on primary macrophages or HeLa-CD36 cells (human) (UniProt P16671); assay: cell-based or functional assay
[5] = test system: HIV-1-infected macrophages; assay: CD36 mAb blocking assay: p24 in supernatant and cell lysate of HIV-1-infected macrophages (ELISA); conditions: overnight exposure, comparison with CD36 ligands (FIG. 15E)

## Cc1[nH]c2ccccc2c1C[C@@H](NC(=O)[C@@H](N)Cc1cnc[nH]1)C(=O)N[C@@H](C)C(=O)N[C@@H](Cc1c[nH]c2ccccc12)C(=O)N[C@H](Cc1ccccc1)C(=O)N[C@@H](CCCCN)C(N)=O [Hexarelin, hexarelin] (H-H[dTrp(2-Me)]AW[dF]K-NH2)
CD36 [1]
  CD36-mediated uptake of oxLDLs: blocks

## Cc1c(C)c2c(c(C)c1O)CC[C@@](C)(CCC[C@H](C)CCC[C@H](C)CCCC(C)C)O2 [α-tocopherol]
CD36 [2]
  uptake of oxLDLs into macrophages: reduce
CD36 [2]; macrophages
  expression of CD36: reduce

## CAGUUUAUCAUUCAAGUGUAA (listed as RNA, chemistry not given here) [Tsg101]
[3]
  extent of the inhibition of p24 release: similar

## CD36-specific mAb clone CLB-IVC7 (Immunotools) (antibody)
[4]
  p24 release in the culture supernatant of HIV-1-infected macrophages (ELISA), titration of the mAb: 32 ng/mL

## Trombospondin-1: endogenous ligand of CD36
[5]
  release of p24: none of the two ligands reduced

## type-I Collagen: endogenous ligand of CD36, purchased from Sigma
[5]
  release of p24: none of the two ligands reduced

Source: patent US20150259429A1, “CLUSTER OF DIFFERENTIATION 36 (CD36) AS A THERAPEUTIC TARGET FOR HIV INFECTION” (INSTITUT CURIE, priority 2012, published 2015)
